The text below walks through data of ChEMBL document CHEMBL3352698, “Synthesis of 3',4'-difluoro-3'-deoxyribonucleosides and its evaluation of the biological activities: discovery of a novel type of anti-HCV agent 3',4'-difluorocordycepin” (Bioorg Med Chem, 2014).

The source made the active and inactive calls. The calls are words filed in the database; no cut-off is given here.

In series [1] the test system is Vesicular stomatitis virus. Kind of series: Antimicrobial activity against Vesicular stomatitis virus. The format is functional, organism-based.
Series [2] concerns Herpesviridae sp. Kind of series: Antimicrobial activity against Herpes simplex virus. The format is functional, organism-based.
Series [3] in a line: Cytotoxicity against human ORL8 cells after 72 hrs by WST-1 assay. The class given is cell-based.
The nature of series [4]: Selectivity index, ratio of CC50 for human ORL8 cells to EC50 for Hepatitis C virus infected in […]. The format is toxicity, cell-based. The settings on record: read-out: Ratio CC50/EC50.
The subject of series [5] is Human alphaherpesvirus 3. Kind of series: Antimicrobial activity against Varicella-zoster virus. The class given is functional, organism-based.
In series [6] the test system is Hepatitis C virus. Kind of series: Antiviral activity against Hepatitis C virus infected in […] after 72 hrs by luciferase reporter gene assay. The class given is functional, organism-based, Hepacivirus hominis. The following applies: OR6, 72 h. (Reporter assays use an easily measured gene product as a stand-in for the process of interest.)
Series [7] relates to Cancer cell lines. Kind of series: Cytotoxicity against human cervical cancer cells. The class given is functional, cell-based.
The test system of series [8] is Human betaherpesvirus 5. Kind of series: Antimicrobial activity against Human cytomegalovirus. The format is functional, organism-based.
For series [9], the system named is Leukemia cell. Kind of series: Cytotoxicity against mouse leukemia cells. The format is functional, cell-based.
Series [10] relates to Hepatitis C virus. Kind of series: Antiviral activity against Hepatitis C virus infected in mouse HB-1 cells after 24 hrs by ribonuclease replicon assay. The format is functional, organism-based, Hepacivirus hominis. The settings on record: HB1, 24 h.

`Nc1ncnc2c1ncn2[C@@H]1O[C@@](F)(CO)[C@@H](F)[C@@H]1O`: the result in series [1], in series [2], in series [5] and in series [8] was inactive. Besides, the CC50 (commonly the concentration at which the toxic effect on the cells reaches its halfway point) at 72 h in series [3] is over 200 µM. In addition, the selectivity ratio in series [4] was over 1. The EC50 (usually the concentration needed to bring the measured effect to its halfway point) in [6] was over 200 µM. The inhibition result in [7] and in series [9] was “inactive” in each case.

Consider `Nc1ncnc2c1ncn2[C@@H]1O[C@@](F)(CO)[C@H](F)[C@H]1O`, for which the outcome in series [1], in series [2], in series [5] and in series [8] was inactive. This compound also displayed a CC50 at 72 h in series [3] of over 100 µM. Moreover, in series [4], the selectivity ratio was over 1. Further, the EC50 in series [6] is over 100 µM. Moreover, the inhibition result in series [7] and in series [9] was “inactive” throughout.

For `Nc1ncnc2c1ncn2[C@@H]1O[C@H](CO)[C@@H](F)[C@H]1O`, in series [10], a half-maximal response (EC50) required 1.2 µM.

`Nc1ccn([C@@H]2O[C@](F)(CO)[C@H](F)[C@H]2O)c(=O)n1`: the CC50 at 72 h in [3] came out at 36 µM. Further, in series [4], the selectivity ratio is under 0.36. In series [6], this compound came in with a concentration giving a half-maximal response (EC50) of over 100 µM.

Compound `NC(=O)c1ncn([C@@H]2O[C@H](CO)[C@@H](O)[C@H]2O)n1` [RIBAVIRIN] showed a CC50 at 72 h in [3] of 100 µM. Also, the selectivity ratio in [4] was determined as 18. In addition, in series [6], the EC50 was found to be 5.6 µM.

As for `Nc1ncnc2c1ncn2[C@@H]1O[C@](F)(CO)[C@H](F)[C@H]1O`, the outcome in [1], in series [2], in series [5] and in series [8] was inactive. Besides, the CC50 at 72 h in series [3] is over 200 µM. Besides, the selectivity ratio in series [4] was over 1. In addition, in series [6], the EC50 was over 200 µM. Further, the inhibition result in [7] and in series [9] was “inactive” in each case.

Take `Nc1ncnc2c1ncn2[C@@H]1O[C@](F)(CO)[C@@H](F)[C@H]1O`: the result in series [1], in [2], in [5] and in [8] was inactive. Besides, the CC50 at 72 h in series [3] was determined as 90 µM. Besides, the selectivity ratio in [4] was determined as 19. Also, the EC50 in series [6] turned out to be 4.7 µM. For the same compound, the inhibition result in [7] and in [9] was “inactive” throughout.

The compound `Nc1ccn([C@@H]2O[C@@](F)(CO)[C@H](F)[C@H]2O)c(=O)n1` yielded a CC50 at 72 h in series [3] of 23 µM. Besides, the selectivity ratio in [4] is under 0.23. Further, the EC50 in series [6] was over 100 µM.

For `CC(C)OC(=O)[C@H](C)N[P@](=O)(OC[C@H]1O[C@@H](n2ccc(=O)[nH]c2=O)[C@](C)(F)[C@@H]1O)Oc1ccccc1` [SOFOSBUVIR], the cytotoxic concentration (CC50) at 72 h in series [3] is over 5 µM. Besides, the selectivity ratio in series [4] was over 36. Moreover, in series [6], the EC50 is 0.14 µM.

As to `Nc1ncnc2c1ncn2[C@@H]1O[C@H](CO)C[C@H]1O` [CORDYCEPIN], in series [3], the midpoint of cytotoxicity, the CC50 at 72 h, lay at 13 µM. Moreover, the selectivity ratio in [4] amounted to 0.19. In addition, the EC50 in series [6] was determined as 70 µM.

In series [3], `Nc1ccn([C@@H]2O[C@](F)(CO)[C@@H](F)[C@H]2O)c(=O)n1` showed a CC50 at 72 h of over 50 µM. Besides, in series [4], the selectivity ratio is under 1. The EC50 in [6] was over 50 µM.
